Test results: patent US4985441A, “Anti-tumor agents” (Imperial Chemical Industries plc, priority 1988, dated 1991)

Key:
[1] = tested on: human breast, ovarian and liver cancer; conditions: clinical; literature references; cited from earlier work
liver and kidney = conditions: clinical; literature references; cited from earlier work
thymidylate synthetase = target: T1, thymidylate synthetase (Mus musculus, UniProt P07607); test: Test (a): in vitro inhibition of thymidylate synthetase (partially purified from L1210 mouse leukaemia cells); format: biochemical; conditions: enzyme partially purified from L1210 mouse leukaemia cells; read-out: IC50 against thymidylate synthetase [Test (a)]
T1 construct: obtained in partially purified form from L1210 mouse leukaemia cells; endogenous in cells; host or cells: L1210 mouse leukaemia cells (enzyme partially purified)
Source text: (a) An in vitro assay which determines the ability of a test compound to inhibit the enzyme thymidylate synthetase. Thymidylate synthetase may be obtained in partially purified form from L1210 mouse leukaemia cells and utilised using the procedures described by Jackman et al. (Cancer Res., 1986, 46, 2810);

L1210 cell line = test: Test (b): inhibition of growth of the leukaemia cell line L1210 in cell culture; format: cell-based; conditions: Mus musculus, read-out: IC50 against the L1210 cell line [Test (b)]
Source text: Compounds of the CB3717 type are believed to act as anti-tumour agents by inhibiting the enzyme thymidylate synthetase. The anti-tumour activity of CB3717 may be assessed in vitro by determining its inhibitory effect on that enzyme, and in cell cultures by its inhibitory effect on cancer cell lines such as the mouse leukaemia cell lines L1210 and L5178Y TK-/- and the breast cancer cell line MCF-7.
(b) An assay which determines the ability of a test compound to inhibit the growth of the leukaemia cell line L1210 in cell culture. The test is similar to that described in UK Patent Specification No. 2065653B;

T1 sequence (P07607 whole entry): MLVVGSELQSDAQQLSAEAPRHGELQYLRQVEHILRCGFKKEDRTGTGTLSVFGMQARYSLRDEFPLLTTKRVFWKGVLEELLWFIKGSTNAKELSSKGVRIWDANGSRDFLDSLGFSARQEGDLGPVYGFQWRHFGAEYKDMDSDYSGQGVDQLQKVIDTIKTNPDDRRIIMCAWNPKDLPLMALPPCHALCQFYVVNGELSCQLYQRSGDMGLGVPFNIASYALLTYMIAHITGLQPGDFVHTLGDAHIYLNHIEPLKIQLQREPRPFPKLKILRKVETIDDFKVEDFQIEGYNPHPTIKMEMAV

## C#CCN(Cc1ccc2nc(N)[nH]c(=O)c2c1)c1ccc(C(=O)N[C@@H](CCC(=O)O)C(=O)O)cc1 [CB3717]
[1]
  activity against human breast, ovarian and liver cancer: promising activity against human breast, ovarian and liver cancer
Liver and kidney
  toxicity in humans: symptoms of toxicity in humans, particularly in relation to the liver and kidney

## C#CCN(Cc1ccc2nc(C)nc(O)c2c1)c1ccc(C(=O)NCCC)cc1 [p-[N-(3,4-dihydro-2-methyl-4-oxoquinazolin-6-ylmethyl)-N-(prop-2-ynyl)amino]-N-propylbenzamide]
Thymidylate synthetase
  IC50: 1.8 µM
L1210 cell line
  IC50: 7 µM
